Counter-ions that a name gives are not always drawn.

Tested on in one data set: not given
Assay: not given
Details: not given
A word on the melting point: it is the temperature of the solid-liquid transition. As to `COc1cc(CN2CCN(c3ccccc3F)CC2)ccc1OC(=O)N(C)C`, the melting point fell in the range of 130 to 133 °C.

`COc1cc(CN2CCN(c3ccccc3OC)CC2)ccc1OC(=O)N(C)C` (as salt: hydrochloride) [Example 49, 1-[[4-(Dimethylaminocarbonyloxy)-3-(methoxy)phenyl]methyl]-4-(2-methoxyphenyl)piperazine Dihydrochloride] registered a melting point of 196 to 206 °C.

As for `COC1(OCCO)CCN(Cc2ccccc2)C1` (stereo not shown), the melting point lay in the range of 55 to 57 °C. The same measure, in the same setting: the value for `COc1cc(CN2CCN(c3ccccc3Cl)CC2)ccc1OC(=O)N(C)C.Cl` was 190 to 193 °C. Still for that read-out and setting: the value for `CCOC(=O)COc1cc(C=O)ccc1OCc1ccccc1` was 36 to 43 °C; that for `C#CCOc1cc(CN2CCc3cc(OC)c(OC)cc3C2)ccc1OC` (as salt: hydrochloride) [Example 36, 6,7-Dimethoxy-N-[(4-methoxy)-3-(propargyloxy)phenylmethyl]-1,2,3,4-tetrahydroisoquinoline Hydrochloride] was 220 to 222 °C (dec.). As for `C#CCOc1cc(C=O)ccc1OS(C)(=O)=O`, the melting point was 81 to 83 °C.

In turn, `COc1cc(CN2CCN(c3ccccn3)CC2)ccc1OC(=O)N(C)C` [Example 40] yielded a melting point of 140 to 145 °C. Regarding `CNC(=O)Oc1ccc(CN2CCN(c3ccc([N+](=O)[O-])cc3)CC2)cc1OC`, the melting point is 155 to 157 °C. Same read-out and setting: next, `CNC(=O)Oc1ccc(CN2CCc3cc(OC)c(OC)cc3C2)cc1OC` (as salt: hydrochloride) [Example 42, 2-[3-Methoxy-4-(methylaminocarbonyloxy)phenylmethyl]-1-(6,7-dimethoxy)-1,2,3,4-tetrahydroisoquinoline Hydrochloride]: 205 to 208 °C (dec.).

Another data set addresses T1, acetylcholinesterase (Rattus norvegicus, UniProt P37136).
T1 construct: corpora striata dissected free, weighted and homogenized in 19 volumes (approximately 7 mg protein/ml) of 0.05M Phosphate Buffer; from tissue; host or cells: rat brain corpora striata, crude homogenate
T1 sequence (P37136 32-614): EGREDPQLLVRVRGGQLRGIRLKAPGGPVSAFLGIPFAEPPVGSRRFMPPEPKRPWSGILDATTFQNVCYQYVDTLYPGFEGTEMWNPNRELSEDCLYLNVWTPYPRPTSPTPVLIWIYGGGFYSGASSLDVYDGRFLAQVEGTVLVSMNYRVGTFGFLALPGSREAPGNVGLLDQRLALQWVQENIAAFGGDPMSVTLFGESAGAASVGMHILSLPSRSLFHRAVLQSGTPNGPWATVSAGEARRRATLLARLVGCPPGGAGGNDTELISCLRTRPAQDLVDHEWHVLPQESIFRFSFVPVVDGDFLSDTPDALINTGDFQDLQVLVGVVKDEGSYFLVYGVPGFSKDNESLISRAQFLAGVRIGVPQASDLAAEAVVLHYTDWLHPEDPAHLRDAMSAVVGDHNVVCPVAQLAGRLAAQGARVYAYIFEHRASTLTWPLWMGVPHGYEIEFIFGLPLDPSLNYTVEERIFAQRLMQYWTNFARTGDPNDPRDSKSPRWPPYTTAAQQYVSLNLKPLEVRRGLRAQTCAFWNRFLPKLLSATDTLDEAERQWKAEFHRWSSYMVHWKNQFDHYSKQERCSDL
As to the kind of experiment: biochemical. As to conditions: Male Wistar rat corpora striata homogenate; preincubated 10 minutes at 37° C.; acetylthiocholine substrate 5 millimolar final; log-probit analysis; read-out: Inhibition of Acetylcholinesterase Activity IC50. The method, then: 1. 0.05M Phosphate Buffer (pH 7.2)
A solution of monobasic sodium phosphate monohydrate (6.85 g) in distilled water (100 ml) is added to a solution of dibasic sodium phosphate heptahydrate (13.4 g) and distilled water (100 ml) until a pH of 7.2 was attained. The solution was diluted 1 to 10 with distilled water.
3. 5,5-Dithiobisnitrobenzoic acid in Buffer
The 0.05M Phosphate Buffer (pH 7.2) was added to 5.5-dithiobisnitrobenzoic acid to a total volume of 100 ml, i.e., a quantity sufficient (gs) to 100 ml.
4. Stock Solution of Drug
A 2 millimolar stock solution of the test drug is prepared in a quantity sufficient of either acetic acid or dimethyl sulfoxide to volume with 5,5-dithiobisnitrobenzoic acid in Buffer. Stock Solution of Drug is serially diluted (1:10) so that the final cuvette concentration is 10^−4 molar.
Male Wistar rats are decapitated, brains rapidly removed, corpora striata dissected free, weighted and homogenized in 19 volumes (approximately 7 mg protein/ml) of 0.05M Phosphate Buffer (pH 7.2) using a Potter-Elvejhem homogenizer. A 25 μl aliquot of this suspension is added to 1 ml of the vehicle or various concentrations of the test drug and preincubated for 10 minutes at 37° C. Enzyme activity is measured with a Beckman DU-50 spectrophotometer with the following software and instrument settings:
Reagents are added to the blank and sample cuvettes as follows:
Blank values are determined for each run to control for non-enzymatic hydrolysis of substrate and these values are automatically subtracted by the Kindata program available on kinetics soft-pac module. This program also calculates the rate of absorbance change for each cuvette.
Substrate concentration is 10 millimolar diluted 1:2 in assay yielding final concentration of 5 millimolar. 5,5-dithiobisnitrobenzoicacid concentration is 0.5 millimolar yielding 0.25 millimolar final concentration. [formula]
IC50 values are calculated from log-probit analysis
Broadly, the IC50 is the concentration needed to halve the response being measured. Take `CNC(=O)Oc1cc(CN2CCN(c3ccccn3)CC2)ccc1OC` [Example 38, 4-[[4-Methoxy-3-(methylaminocarbonyloxy)]phenylmethyl]-1-(pyridin-2-yl)piperazine Dihydrochloride]: the IC50 came out at 2390 nM. Consider `CNC(=O)Oc1ccc(CN2CCN(c3ccccn3)CC2)cc1OC` [Example 35, 4-[[3-Methoxy-4-(methylaminocarbonyloxy)]phenylmethyl]-1-(pyridin-2-yl)piperazine Hydrochloride Monohydrate], for which the IC50 amounted to 536 nM.

With `COc1cc(CN2CCN(c3ccccn3)CC2)c(Br)cc1OC(=O)N(C)C` [Example 67, N-(2-Bromo-4-[dimethylcarbamoyloxy]-5-methoxy)benzyl-N′-(pyridin-2-yl)-piperazine], the IC50 worked out at 18 nM. The same measure, in the same setting: the value for `COc1cc(C(C)N2CCN(c3ccccn3)CC2)ccc1OC(=O)N(C)C` (stereo not shown) [Example 78, 1-[1-(4-N,N-Dimethylcarbamoyloxy-3-methoxyphenyl)ethyl]-4-pyridin-2-yl-piperazine Dihydrochloride] was 358 nM.

Regarding “4-(Methylaminocarbonyloxy)-3-(propargyloxy)1-(pyrrolidinomethyl)benzene Citrate [Example 17]”, the IC50 amounted to 3.6 nM.

The same data set, now with this note: read-out: Inhibition of Acetylcholinesterase Activity IC50.
For `CC(c1ccc(OC(=O)N(C)C)c(F)c1)N1CCN(c2ccccn2)CC1` (stereo not shown) [Example 74, 1-[1-(4-N,N-Dimethylcarbamoyloxy-3-fuorophenyl)ethyl]-4-pyridin-2-yl-piperazine], the IC50 came out at 14000 nM.

The values are drawn from patent US6479495B1, “Aminoalkylphenol derivatives and related compounds” (priority 1997, dated 2002).
